Where no end group is shown, it is not given here.
Experiments:
WT-mDHFR = test: DHFR activity assay (NADPH turnover at 340 nm), WT-mDHFR; assay type: biochemical, murine
Experimental: (§1) (A) Fifteen TRE sites were introduced into the mDHFR gene (2 silent and 13 substitutions) to allow for a cJun-induced transcriptional block. […] Change in absorbance at 340 nm was measured to determine the rate of NADPH turnover by (B) WT-mDHFR and (C) TRE-mDHFR with or without the substrate DHF. […] Specific activity was calculated from the linear initial rate (first 2.5 min for WT-mDHFR, first 10 min for TRE-mDHFR; +NADPH only reaction blank subtracted). Data are averages from triplicate experiments with errors shown as one standard deviation.
(§2) Jupiter Proteo column (4-μm particle size, 90 Å pore size, 250 × 10 mm; Phenomenex) using a water:acetonitrile gradient (0.1% TFA). Peptides without a SUMO tag, were concentrated after Histrap elution and HPLC purified. […]
(§3) or Mtx (1 µM in reaction). Reactions were initiated by the addition of DHF (50 µM in reaction plus a blank reaction with no DHF) and the absorbance at 340 nm of samples was measured using a Varian Cary 50 UV-Vis spectrophotometer. The specific activity (∆OD/minsample― ∆OD/minblank) was calculated using the following equation. Specific activity = 12.3× mg protein Library Construction and TBS Assay: Library inserts were produced using PCR fill-in reactions from synthesised primers (Sigma) with degenerate codons at the desired positions to produce the correct residue options. […]

TRE-mDHFR = test: DHFR activity assay (NADPH turnover at 340 nm), TRE-mDHFR; assay type: biochemical, murine
Experimental: as §1, §2, §3

cJun/TRE DNA interaction = target: T1, cJun/TRE DNA interaction (Homo sapiens, UniProt P05412); test: CD TRE DNA peak shift, antagonism of cJun/TRE DNA interaction; assay type: biochemical; conditions: cJun 20 μM, TRE DNA 5 μM, DNA peak ~281 nm, Hill equation; three independent experiments, one SD; pH 7.4
T1 construct: The human cJun bZIP domain spans from Arg252 to Leu308; His-SUMO (N, cleaved yes); AS cap (two residues Ala-Ser) (N); GAP cap (three residues Gly-Ala-Pro) (C); made in house; host or cells: E. coli (pET21-His-SUMO plasmid)
Experimental: The binding of cJun to TRE DNA can be observed by monitoring a DNA absorbance peak in the CD spectrum centered at ∼281 nm.[44] […] The addition of cJun (20 μM) to TRE DNA (5 μM) decreases this DNA peak by 55% as the cJun engages its target TRE site and alters the DNA structure (Figure 6A). Subsequent titration of HingeW into this bound cJun/TRE DNA mixture reverses the peak shift, with the peak increasing as DNA is released.
Figure 6 HingeW antagonizes cJun/TRE DNA interaction more effectively than A-FosW. (A) CD spectra showing a shift in the TRE DNA peak at ∼281 nm upon addition of cJun, which is reversed by the titration of HingeW into the sample, as HingeW sequesters the cJun in a nonfunctional heterodimer. […] EMSA showing the (C) unbound TRE DNA band shift upon addition of cJun and the subsequent restoration of the unbound DNA band intensity upon titration of either (D) HingeW or (E) A-FosW. (F). For both CD and EMSA, data was averaged from three independent experiments and the plotted error bars indicate one standard deviation. […]
(§4) µM) alongside ampicillin, kanamycin and chloramphenicol to maintain the required plasmids, and IPTG (1 mM) to induce protein expression. The library transformants were […]
increased to the optimum 4 µM in subsequent passages. […] This allows the occurrence of library members to be monitored as winner sequences are selected for. […]

[1] = test system: cJun bZIP / TRE sites in TRE-mDHFR gene; test: Transcription block survival (TBS) colony counting in E. coli; assay type: cell-based, human cJun, expressed in E. coli; conditions: three experimental repeats
Experimental: Figure 3 Transcription block survival (TBS) assay to derive functionally active cJun inhibitors. (A) Schematic illustrating the design and operation of TBS. (B) Controlled numbers of E. coli expressing the indicated proteins were plated on selective media and growth rates were calculated by counting colony-forming units. […] (2) A small effect on colony numbers is observed when cJun bZIP is additionally expressed. (3) TRE-mDHFR can replace the inhibited ecDHFR with colony count lower than for WT as expected. […] Although (6) cFos LZ and (7) FosW are known cJun-binders, they are unable to effectively dissociate the cJun bZIP from TRE DNA. However, (8) A-FosW and the TBS-derived hit (9) HingeW remove TRE-mDHFR transcriptional blocks to restore cell survival. Bar charts represent averages of three experimental repeats. Errors are shown as one standard deviation. Selected P values from a t-test are indicated (*P ≤ 0.05; **P ≤ 0.01; ****P ≤ 0.0001) with values for all possible comparisons within the bar chart reported in Figure S7. Serial dilutions were used to quantify colony numbers where required. Also shown are representative plate images and schematics to illustrate the effect upon TRE-mDHFR transcription. […]
Library Construction and TBS Assay: Library inserts were produced using PCR fill-in reactions from synthesised primers (Sigma) with degenerate codons at the desired positions to produce the correct residue options. The library was subcloned using SacI and AscI sites into the pET24a plasmid containing A-FosW. The primers used were cJun- […]
-3’ and cJun-Hinge-Lib_R: 5’-
-3’. The library DNA was transformed into NEB 10-beta electrocompetent E. coli cells. The following equation was utilised to determine library […]
coverage by the number of single colonies: where E is the percentage […] of the library missing, m is the number of colonies collected and n is the library size. This […]
covered. Library DNA quality was assessed by sequencing both the DNA pool and a number of single colonies to show degenerate codons in the correct positions in the pool and to show a diversity of library members from single colonies. The pool of library DNA was transformed into BL21 Gold cells already containing pES300d-TRE-mDHFR and […]
as §4
however a lower stringency is used initially before selection is increased in later steps.
Colonies from this first round of selection were pooled and serially grown in liquid culture at starting OD600 of 0.05 and grown at 37°C with shaking at 200 rpm until the OD600 […]
increased to the optimum 4 µM in subsequent passages. Bacteria containing the most effective functional antagonists were expected to produce higher levels of TRE-mDHFR which provides a growth advantage, and these will dominate the culture. At each passage step, a sample of the culture was plated on LB agar (supplemented with antibiotics to maintain plasmids) to select and sequence individual colonies, and a DNA pool was also sequenced. This allows the occurrence of library members to be monitored as winner sequences are selected for. Assay Validation experiments utilised a modified assay methodology whereby overnight cultures from glycerol stocks of the Control Strains (Figure S6) were diluted to OD600=0.5 and 50 µL was plated on a selective M9 minimal […]

T1 sequence (P05412 252-308): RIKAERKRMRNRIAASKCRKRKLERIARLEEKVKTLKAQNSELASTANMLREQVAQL

Molecule: CN(Cc1cnc2nc(N)nc(N)c2n1)c1ccc(C(=O)N[C@@H](CCC(=O)O)C(=O)O)cc1 [MTX, methotrexate, reference compound]
- inhibition by MTX (WT-mDHFR): clear inhibition of the reaction
- inhibition by MTX (TRE-mDHFR): clear inhibition of the reaction

Molecule: MASLDELQAEIEQLEERNYALRKEIEDLQKQLEKLGAPHHHHHH [FosW, reference compound]
- IC50 (cJun/TRE DNA interaction): 119.8 ± 1.1 µM

Molecule: cFos LZ: human cFos leucine zipper domain, Thr162 to Leu193 [reference compound]
- restoration of colony numbers of transcriptionally blocked cells ([1]; TRE-mDHFR + cJun bZIP + peptide vs TRE-mDHFR + cJun bZIP, M9 + TMP + IPTG, P > 0.05): no significant increase in colony numbers

Molecule: cJun LZ: cJun LZ only construct in which the 25 residue DBD was deleted; Ile277 to Leu308 (IARLEEKVKTLKAQNSELASTANMLREQVAQL; UniProt P05412 277-308, looked up, fragment) [reference compound]
- effect of cJun LZ (DBD deleted) on colony formation ([1]; TRE-mDHFR + cJun LZ vs TRE-mDHFR only, P = 0.1): did not affect bacterial colony formation

Reference: PMC9088798, “An Approach to Derive Functional Peptide Inhibitors of Transcription Factor Activity” (JACS Au, 2022)
